Assay results as given in patent US20240279263A1, “NOVEL SEA ALGAE-DERIVED ALKYL-AGARBIOSIDE, PREPARATION METHOD THEREFOR, OR USE THEREOF” (KOREA UNIVERSITY RESEARCH AND BUSINESS FOUNDATION, priority 2021, published 2024).

Key:
[1] = system: HaCaT cells; test: MTT cytotoxicity test in HaCaT keratinocytes; format: cell-based, human; settings: for Cytotoxicity: HaCaT cells, AB below 100 µg/mL
Procedure: Cytotoxicity tests were performed using the MTT(3-4,5-dimethylthiazol-2yl)-2,5-diphenyl-2H-tetrazolium bromide) assay. HaCaT cells were cultured in an animal cell incubator at 37° C. and 5% CO2 in a laboratory using Dulbecco's Modified Eagle Medium (DMEM) containing 10% (v/v) FBS, 100 U/mL penicillin, and 100 µg/mL streptomycin as antibiotics. The produced AB was dissolved in DMSO and added to the culture medium at […], and cells were cultured in the medium for 24 hours. The cells were treated with an MTT solution (5 mg/mL) and cultured for another 4 hours, and then an amount of the produced formazan as a blue crystal, was measured by measuring absorbance at 595 nm using an ELISA reader. Toxicity to cells was expressed as a percentage of the average absorbance value of each control group. To investigate the cytotoxicity of AB in HaCaT keratinocytes, when AB was treated at a concentration of […], the degree of change in cell proliferation was calculated compared to control groups treated with only DMSO. The results of Example 1 are shown in A of FIG. 1.
B of FIG. 1 illustrates the presence or absence of a cytotoxic effect when HaCaT keratinocytes are treated with AB according to an example of the present invention. Cell viability was measured to be 100% or more at 100 µg/mL AB.

[2] = system: HAS2; test: HAS2 expression in HaCaT cells by Western blot (moisturizing effect); format: cell-based, human; settings: for HAS2 expression compared to L-AHG: same concentration (100 μg/mL, FIG. 7)
Text: Hyaluronan (HA) is a glycosaminoglycan composed of D-glucuronic acid and N-acetyl-D-glucosamine. Due to its ability to retain large amounts of water, HA plays an important role in regulating hydration and osmotic pressure. […] is synthesized in cell membranes by HAS1, HAS2, and HAS3, and HAS2 in particular appears in human normal tissues. […] Therefore, increasing HAS2 expression may be a great strategy to maintain skin homeostasis. To determine the AB induction time and AB concentration for HAS2 expression, Western blot analysis was performed. Cells used for the analysis were HaCaT cells, which were cultured at 37° C. in a 5% CO2 atmosphere using DMEM with 10% FBS and penicillin/streptomycin. Cells (1×10^5) were cultured in 6-cm dishes for 24 hours and then starved in serum-free medium for another 24 hours to remove the FBS effect on the activation of the kinase. Then, AB was treated at a certain time and concentration. Cells were lysed with a lysis buffer [20 mM Tris-HCl (pH 7.5), 150 mM NaCl, 1 mM Na2EDTA, 1 mM EGTA, 1% Triton X-100, 2.5 mM sodium pyrophosphate, 1 mM β-glycerophosphate, 1 mM Na3VO4, […] leupeptin, 1 mM phenylmethylsulfonyl fluoride (PMSF), and a protease inhibitor cocktail tablet]. The protein concentration was measured using a dye-conjugated protein assay kit (Bio-Rad Laboratories Inc.) according to the manufacturer's instructions. Dissolved proteins (20-40 μg) were subjected to 10% SDS-PAGE and transferred to a polyvinylidene fluoride (PVDF) membrane by electrophoresis (Millipore Corp., Bedford, MA, USA). After blotting, the membrane was blocked with 5% skim milk for 2 hours and incubated overnight at 4° C. with a primary antibody […]. Subsequently, the membrane was incubated with a secondary antibody (goat anti-rabbit IgG HRP-conjugated secondary antibody), and the protein bound to the antibody was detected using a chemiluminescence detection kit (Amersham Pharmacia Biotech, Piscataway, NJ). Representative values of two independent experiments were used as data. […] The moisturizing activity of AB was confirmed from the result.

[3] = pH stability (degree of denaturation over time at 25° C.); format: physicochemical; settings: for Stability over time at pH 3: pH 3 (20 mM citrate); for Stability over time at pH 7: pH 7 (20 mM Tris-HCl)
Procedure: The pH stability of AB was assessed (C of FIG. 1). For a pH stability experiment, the degree of denaturation in each sample (AB) over time was measured at 25° C. under conditions of pH 3 (20 mM citrate), pH 7 (20 mM Tris-HCl), and pH 9 (20 mM Tris-HCl). […] Since the buffer and AB peaks were not separated at pH 3 using HPLC, AB was quantified through GC/MS analysis. The derivatization process for GC/MS analysis is as follows. After drying a purified sample with a speed vac, 10 μL of 40 mg/mL O-methylhydroxylamine hydrochloride in pyridine was added and reacted at 30° ° C. and 200 rpm for 90 minutes. Then, 45 μL of N-methyl-N-(trimethylsilyl)trifluoroacetamide was added and reacted at 37° C. and 200 rpm for 30 minutes. Instrument conditions for GC/MS analysis are as follows. A DB5-MS capillary column was used in the analysis, and the GC column temperature condition was maintained at 50° C. for 1 minute and then raised to 280° C. and maintained for 5 minutes. 1 μL of sample was analyzed in a splitless mode. Each concentration of […] at pH 7 and pH 9 was analyzed using HPLC. HPX-87H was used as a column, and the sample was analyzed at a column temperature of 65° C. and a flow rate of 0.5 mL/min. 0.005 M sulfuric acid was used as a mobile phase.

[4] = Temperature stability (denaturation/decomposition over time); format: physicochemical; settings: for Time for which stability was maintained at 4° C. / Time for which stability was maintained at 30° C.: HPLC
Procedure: The temperature stability of agarobiose was tested. The experimental method measured the denaturation/decomposition degrees of AB and ethyl-agarobioside over time at 4° C., 30° C., and 45° C. […] AB and ethyl-agarobioside were quantified using HPLC.

[5] = system: HAS2; settings: Korean Registered Patent No. 10-1525298; cited from earlier work

SMILES	Cytotoxicity [1]	Cell viability ([1]; HaCaT keratinocytes, 24 hours, 100 µg/mL AB, vs DMSO control) [%]	HAS2 expression, concentration dependence ([2]; Western blot)	HAS2 expression ([2]; Western blot, 3 hours after treatment)	HAS2 expression compared to L-AHG [2]	Stability over time at pH 3 [3]	Stability over time at pH 7 [3]	Time to complete denaturation / decomposition at pH 9 ([3]; pH 9 (20 mM Tris-HCl)) [weeks]	Stability at 45° C. [4]	Time for which stability was maintained at 4° C. [4] [weeks]	Time for which stability was maintained at 30° C. [4] [weeks]	Moisturizing activity in HaCaT cells (previous study) [5]	Moisturizing activity (HAS2 expression level) ([2]; same manner as Example 1)	Stability over time at pH 9 ([3]; pH 9 (20 mM Tris-HCl))	Conversion product at 45° C. ([4]; 45° C., HPLC analysis of reactant components)
OC[C@H]1O[C@@H](O[C@H]2[C@H]3OC[C@@H]2OC(O)[C@H]3O)[C@H](O)[C@@H](O)[C@H]1O (mixture of isomers) [AB, agarobiose]	no cytotoxicity	≥ 100	increased HAS2 expression in a concentration-dependent manner	increased HAS2 expression	greatly increased	stable	stable	≤ 6	stability slowly decreased	15	15	–	–	–	–
O=C[C@@H](O)[C@@H]1OC[C@H](O)[C@H]1O [L-AHG, 3,6-anhydro-L-galactose]	–	–	–	–	–	–	–	–	–	–	–	has moisturizing activity	–	–	–
CCOC1O[C@H]2CO[C@H]([C@@H]2O[C@@H]2O[C@H](CO)[C@H](O)[C@H](O)[C@H]2O)[C@@H]1O (stereo partly shown) [ethyl-agarobioside]	without cytotoxicity	–	–	–	greatly increased	maintained	maintained	–	less stable than AB after 6 weeks	15	15	–	exhibits moisturizing activity	maintained	converted to AB
